1 substance from US20220282657A1 (priority 2016, published 2022) can be followed below.

For this test, the system named is spleen cells. Also noted: species or system CD-1 mice. Particulars: mouse, in vivo.

For QS21, the “cell-mediated immune response (cytokine profile), in words” value was “strong and balanced Th1 plus Th2 cytokine profile”.
